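Values below derive from 48-hour exposures of cells grown in 96-well plates, with endpoints linearly interpolated between the two concentrations bracketing the appropriate inhibition level. GI50 = concentration required for 50% inhibition of growth. TGI is the concentration that stops growth completely.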
Key:
Assay in all cases: growth of human tumour cells (NCI), 48 h
RPMI-8226 leukemia = system: RPMI-8226 leukemia
IGROV1 ovarian = system: IGROV1 ovarian
OVCAR-4 ovarian = system: OVCAR-4 ovarian
SF-539 CNS = system: SF-539 CNS
HCT-15 colon = system: HCT-15 colon
A498 renal = system: A498 renal
SK-MEL-28 melanoma = system: SK-MEL-28 melanoma
SR leukemia = system: SR leukemia
U251 CNS = system: U251 CNS
NCI-H522 lung = system: NCI-H522 lung
CCRF-CEM leukemia = system: CCRF-CEM leukemia
NCI/ADR-RES ovarian = system: NCI/ADR-RES ovarian
DU-145 prostate = system: DU-145 prostate
HT29 colon = system: HT29 colon
UACC-62 melanoma = system: UACC-62 melanoma
HL-60(TB) leukemia = system: HL-60(TB) leukemia
EKVX NSCLC = system: EKVX NSCLC
TK-10 renal = system: TK-10 renal
MALME-3M melanoma = system: MALME-3M melanoma
OVCAR-5 ovarian = system: OVCAR-5 ovarian
NCI-H460 lung = system: NCI-H460 lung
HOP-62 NSCLC = system: HOP-62 NSCLC
KM12 colon = system: KM12 colon
HOP-92 NSCLC = system: HOP-92 NSCLC
786-0 renal = system: 786-0 renal
SF-295 CNS = system: SF-295 CNS
SK-MEL-5 melanoma = system: SK-MEL-5 melanoma
ACHN renal = system: ACHN renal
SNB-19 CNS = system: SNB-19 CNS
M14 melanoma = system: M14 melanoma
MCF7 breast = system: MCF7 breast
PC-3 prostate = system: PC-3 prostate
SK-OV-3 ovarian = system: SK-OV-3 ovarian
MDA-MB-231 breast = system: MDA-MB-231 breast
BT-549 breast = system: BT-549 breast
CAKI-1 renal = system: CAKI-1 renal
LOX IMVI melanoma = system: LOX IMVI melanoma
OVCAR-8 ovarian = system: OVCAR-8 ovarian
SNB-75 CNS = system: SNB-75 CNS
HS 578T breast = system: HS 578T breast
COLO 205 colon = system: COLO 205 colon
UO-31 renal = system: UO-31 renal
HCT-116 colon = system: HCT-116 colon
SN12C renal = system: SN12C renal
MOLT-4 leukemia = system: MOLT-4 leukemia
SW-620 colon = system: SW-620 colon
NCI-H226 lung = system: NCI-H226 lung
SF-268 CNS = system: SF-268 CNS
T-47D breast = system: T-47D breast
HCC-2998 colon = system: HCC-2998 colon
A549 NSCLC = system: A549 NSCLC
K-562 leukemia = system: K-562 leukemia
MDA-MB-435 = system: MDA-MB-435
UACC-257 melanoma = system: UACC-257 melanoma
NCI-H23 lung = system: NCI-H23 lung
RXF 393 renal = system: RXF 393 renal

## COc1ccc(/C=N\NC(=O)c2ccc3nc(-c4ccc(Br)cc4)[nH]c3c2)cc1
RPMI-8226 leukemia
  GI50: 2.12 µM
  TGI: 8.38 µM
IGROV1 ovarian
  GI50: 2.22 µM
  TGI: 7.24 µM
OVCAR-4 ovarian
  GI50: 2.14 µM
  TGI: 5.16 µM
SF-539 CNS
  GI50: 1.76 µM
  TGI: 3.47 µM
HCT-15 colon
  GI50: 3.7 µM
  TGI: 22.9 µM
A498 renal
  GI50: 2.26 µM
  TGI: 5.25 µM
SK-MEL-28 melanoma
  GI50: 1.98 µM
  TGI: 4.1 µM
SR leukemia
  GI50: 2.1 µM
  TGI: 6.28 µM
U251 CNS
  GI50: 1.94 µM
  TGI: 3.55 µM
NCI-H522 lung
  GI50: 2.59 µM
  TGI: 11.2 µM
CCRF-CEM leukemia
  GI50: 6.91 µM
  TGI: > 100 µM
NCI/ADR-RES ovarian
  GI50: 17.8 µM
  TGI: > 100 µM
DU-145 prostate
  GI50: 3.07 µM
  TGI: 9.39 µM
HT29 colon
  GI50: 1.7 µM
  TGI: 3.3 µM
UACC-62 melanoma
  GI50: 2.51 µM
  TGI: 7.2 µM
HL-60(TB) leukemia
  GI50: 36.6 µM
  TGI: > 100 µM
EKVX NSCLC
  GI50: 2.22 µM
  TGI: 5.27 µM
TK-10 renal
  GI50: 2.38 µM
  TGI: 5.06 µM
MALME-3M melanoma
  GI50: 1.76 µM
  TGI: 3.79 µM
OVCAR-5 ovarian
  GI50: 2.68 µM
  TGI: 7.27 µM
NCI-H460 lung
  GI50: 1.74 µM
  TGI: 3.37 µM
HOP-62 NSCLC
  GI50: 1.87 µM
  TGI: 4.21 µM
KM12 colon
  GI50: 3.19 µM
  TGI: 12.8 µM
HOP-92 NSCLC
  GI50: 1.9 µM
  TGI: 4.65 µM
786-0 renal
  GI50: 2.05 µM
  TGI: 4.2 µM
SF-295 CNS
  GI50: 1.99 µM
  TGI: 4.27 µM
SK-MEL-5 melanoma
  GI50: 2.03 µM
  TGI: 4.38 µM
ACHN renal
  GI50: 2.27 µM
  TGI: 6.22 µM
SNB-19 CNS
  GI50: 2.81 µM
  TGI: 7.39 µM
M14 melanoma
  GI50: 2.63 µM
  TGI: 7.47 µM
MCF7 breast
  GI50: 1.92 µM
  TGI: 5.81 µM
PC-3 prostate
  GI50: 1.79 µM
  TGI: 3.72 µM
SK-OV-3 ovarian
  GI50: 2.37 µM
  TGI: 15.5 µM
MDA-MB-231 breast
  GI50: 2.43 µM
  TGI: 5.93 µM
BT-549 breast
  GI50: 2.64 µM
  TGI: 7.06 µM
CAKI-1 renal
  GI50: 2.31 µM
  TGI: 6.67 µM
LOX IMVI melanoma
  GI50: 1.93 µM
  TGI: 4.17 µM
OVCAR-8 ovarian
  GI50: 2.2 µM
  TGI: 5.16 µM
SNB-75 CNS
  GI50: 1.93 µM
  TGI: 4.69 µM
HS 578T breast
  GI50: 2.34 µM
  TGI: 5.47 µM
COLO 205 colon
  GI50: 1.94 µM
  TGI: 5.36 µM
UO-31 renal
  GI50: 1.7 µM
  TGI: 5.44 µM
HCT-116 colon
  GI50: 2.65 µM
  TGI: 6.07 µM
SN12C renal
  GI50: 2.4 µM
  TGI: 5.94 µM
MOLT-4 leukemia
  GI50: 4.3 µM
  TGI: > 100 µM
SW-620 colon
  GI50: 2.17 µM
  TGI: 4.64 µM
NCI-H226 lung
  GI50: 2.65 µM
  TGI: 16.8 µM
SF-268 CNS
  GI50: 2.31 µM
  TGI: 5.93 µM
T-47D breast
  GI50: 1.85 µM
  TGI: 4.31 µM
HCC-2998 colon
  GI50: 3.06 µM
  TGI: 9.13 µM
A549 NSCLC
  GI50: 2.42 µM
  TGI: 6.03 µM
K-562 leukemia
  GI50: 2.89 µM
  TGI: 10.4 µM
MDA-MB-435
  GI50: 2.91 µM
  TGI: 8.11 µM
UACC-257 melanoma
  GI50: 2.14 µM
  TGI: 4.78 µM
NCI-H23 lung
  GI50: 2.43 µM
  TGI: 6.05 µM
RXF 393 renal
  GI50: 1.62 µM
  TGI: 3.49 µM

— PubChem BioAssay (NCI)
